In patent EP0751957B1, “PEPTIDE FRAGMENTS OF MICROBIAL STRESS PROTEINS AND PHARMACEUTICAL COMPOSITION MADE THEREOF FOR THE TREATMENT AND PREVENTION OF INFLAMMATORY DISEASES” (priority 1994, dated 2004):

Key:
adjuvant arthritis = assay: Adjuvant arthritis (AA) induced with Mt in IFA, clinical arthritis score; format: in vivo, Lewis rats; conditions: 100 µg peptide in DDA, hind footpads, 7 days prior to AA induction with Mt
Method: Induction and clinical assessment of experimental arthritis: Arthritis was induced by a single intradermal injection in the base of the tail. AA was induced with 0.5 mg Mt suspended in 100 µl IFA. CP20961 arthritis was induced with 2 mg CP20961 in 100 µl light mineral oil (Sigma). Rats were examined daily for clinical signs of arthritis. Severity of arthritis was assessed by scoring each paw from zero to four based on degree of swelling, erythema and deformity of the joints. Thus the maximum possible arthritis score was 16.
Modulation of arthritis with hsp65 peptides and epitope-specific T cell lines: Synthetic peptides corresponding to eight T cell epitopes present in mycobacterial hsp65 were tested for protective effects on arthritis development. Rats were immunised with 100 µg of individual peptide seven days prior to arthritis induction. Peptides were immunised in each hind footpad in 10 mg/ml DDA (50 µl/pad). Control rats received only PBS/DDA. Epitope-specific T cell lines were also tested for protective activity by intravenous administration of lines at the time of arthritis induction. T cell lines were restimulated in vitro with irradiated spleen APC and specific peptide. Four days later T cell blasts were harvested by ficoll gradient, washed and applied to a second ficoll gradient to remove any contaminating APC. T cells were washed twice in wash medium and twice in PBS and finally suspended at 2.5x10^7/ml in PBS. Immediately prior to injection of Mt, 200 µl (i.e. 5x10^6) T cells were injected i.v. in the tail vein.
The effects of preimmunisation with synthetic peptides containing individual epitopes on the development of AA were analysed (Fig. 7). The eight peptides which primed for epitope specific T cells were tested. Rats were immunised with 100 µg of peptide 7 days prior to AA-induction with Mt.

RT1.B^1 molecules = assay: Inhibition of proliferation of T cell lines with other Ag specificities (MHC affinity, preliminary); format: cell-based, Lewis rats; conditions: preliminary experiments, data not shown
Method: The relatively low quantities of hsp65 present in the Mt preparation might result in focusing of T cell responses on hsp65 epitopes with higher affinities for MHC class II molecules. […] Thus, when Ag concentrations are limited (i.e. following Mt immunisation) dominance of T cell epitopes might be more dependent on their relative MHC binding affinities, whereas following immunisation with large quantities of specific antigen (50-100 µg hsp65 per rat) relative dominance might not be simply a function of affinity for MHC. Clearly, antigen processing of the intact hsp65 molecule will determine the peptide fragments generated during in vivo priming, and the naturally processed fragments will not be identical to the synthetic 15mers used in this study. Also the molecular context of hsp65 (i.e recombinant monomeric hsp65, or the multimeric native protein in the Mt preparation) could affect antigen processing and influence the pattern of epitope recognition.

hsp65-PLNC = assay: T cell proliferation assay, hsp65-PLNC; format: cell-based, Lewis rats; conditions: PLNC from hsp65-immunised rats; peptides 5 and 20 µg/ml
Method: (§1) Immunisations and primed lymph node populations: Rats were immunised with either Mt or hsp65. Mt was suspended at 5 mg/ml in IFA or DDA and 100 µl injected in each hind footpad (i.e. 500 µg/footpad, 1 mg/rat). Hsp65 (1 mg/ml in PBS) was mixed 1:1 with DDA and 100 µl injected (i.e. 50 µg/footpad, 100 µg/rat). Ten to 21 days later, draining popliteal lymph nodes were removed, disaggregated, washed three times and used as a source of primed lymph node cells (PLNC). In control experiments splenocytes and lymph nodes from unimmunised rats and PLNC from rats immunised with IFA or DDA/PBS alone were used.
(§2) T cell proliferation assays: PLNC were cultured in triplicate in 200 µl flat bottom microtitre wells (Costar) at 2 x 10^5 cells per well with or without antigen. In initial experiments PLNC were tested for responsiveness to individual peptides at concentrations of 5 and 20 µg/ml, and Mt, hsp65 and PPD over a range of concentrations. Concanavalin A (2 µg/ml) was used as a positive control for T cell proliferation. Cultures were incubated for 96 h at 37°C in a humidified atmosphere of 5% CO2. Cultures were pulsed for the final 16 h with [^3H] TdR (Amersham, U.K., 1 uCi/well) and TdR uptake measured using a liquid scintillation β counter. Assays using T cell lines were performed as above using 2 x 10^4 line cells per well with irradiated (30 Gy) syngeneic accessory cells (either 3 x 10^5 splenocytes/well or 10^6 thymocytes/well). Results are expressed as mean counts per minute (cpm) of triplicate cultures. In experiments where responses to Ag were low, responses were considered significant if the stimulation index (S.I. = […]) was greater than two and Student's t tests gave p < 0.01.
Hsp65-PLNC were analysed for responsiveness to a panel of peptides covering the entire sequence of hsp65 (Fig. 3a). […] In terms of magnitude of response, three regions of the molecule (residues 176-190, 211-230 and 221-240) appeared to contain the "dominant" T cell epitopes, while regions 86-100. 251-270, 396-410 and 506-525 contained "subdominant" or minor epitopes.

[1] = tested on: PLNC from preimmunised rats; assay: T cell proliferation assay, PLNC of peptide-preimmunised AA rats 42 days after Mt; format: cell-based, Lewis rats; conditions: 42 days after Mt administration
Method: Immunisations with synthetic peptides and primed lymph node populations: Rats were immunised with 50 µg of synthetic peptide in PBS/DDA in each hind footpad (i.e. 50 µg/footpad, 100 µg/rat). Ten days later, draining popliteal lymph nodes were removed, disaggregated, washed three times and used as a source of primed lymph node cells (PLNC). In some experiments, PLNC were derived as pooled inguinal and popliteal lymph nodes from AA rats 35-42 days post Mt immunisation.
as §2
PLNC from preimmunised rats were tested for responsiveness to hsp65 epitopes 42 days after Mt administration (Fig. 8). […] Responses to peptide 176-190 containing the AA-associated epitope were found in all PLNC populations (and enhanced after 176-190 preimmunisation) with one exception.

Mt-PLNC = assay: T cell proliferation assay, Mt-PLNC; format: cell-based, Lewis rats; conditions: PLNC from rats immunised with Mt mixed with DDA
Method: as §1
T cell proliferation assays: PLNC were cultured in triplicate in 200 µl flat bottom microtitre wells (Costar) at 2 x 10^5 cells per well with or without antigen. In initial experiments PLNC were tested for responsiveness to individual peptides at concentrations of 5 and 20 µg/ml, and Mt, hsp65 and PPD over a range of concentrations. Concanavalin A (2 µg/ml) was used as a positive control for T cell proliferation. Cultures were incubated for 96 h at 37°C in a humidified atmosphere of 5% CO2. Cultures were pulsed for the final 16 h with [^3H] TdR (Amersham, U.K., 1 uCi/well) and TdR uptake measured using a liquid scintillation β counter. […] Results are expressed as mean counts per minute (cpm) of triplicate cultures. […]

In the case of “peptide 176-190: synthetic 15mer of mycobacterial hsp65 containing the AA-associated epitope 180-188”, the “protection against AA development after peptide preimmunisation” value (adjuvant arthritis) is reported as “no effect on AA onset”, the “affinity for RT1.B^1 molecules relative to peptides 211-225 or 226-240” value (RT1.B^1 molecules) is reported as “higher affinity” and the “hsp65-PLNC proliferative response to peptide” value (hsp65-PLNC) is reported as “dominant”. The “PLNC response to peptide, rats preimmunised with PBS/DDA alone” value [1] was “significant responses”, the “PLNC response to peptide, rats preimmunised with peptide 256-270” value ([1]; rats protected from AA) was “total lack of response” and the “Mt/DDA-PLNC response to hsp65 peptide” value (Mt-PLNC) was “dominant”.
